How the values were obtained:
Type in all cases: in vivo, Mouse, C57BL/6J, male
[1] = Analysis of exhaled gas (energy metabolism measurement system for small animals); settings: over 24 hours after morning administration on day 82, 720 mg/10mL/kg oral twice a day, ultra high fat diet, n=10
Experimental: A 32-channel energy metabolism measurement system for small animals (ARCO-2000-RAT, Arco System Inc.) was used to measure exhaled gas. Oxygen consumption (mL/min) and Carbon dioxide production (mL/min) of the animals were measured every 10 minutes at an air flow rate of 0.3 L/min. Measurements were carried out for about 24 hours after the completion of oral administration in the morning of the day before necropsy, and total oxygen consumption (mL/kg/day), energy consumption (kcal/kg/day), and lipid burning (mg/kg/day) over 24 hours were calculated using the following formulae: Calculation formulae: [formula] [formula] [formula] (VO2: oxygen consumption, VCO2: carbon dioxide production)
Animals after arrival were fed ad libitum a solid diet of ultra high fat diet (D12492). After an acclimatization period, the animals were divided into groups according to the body weight. Then, the animals were individually housed and fed ad libitum the ultra high fat diet. The test substance was orally administered to all groups twice daily (once in the morning and once in the afternoon) (CON group: 0.5% CMC was orally administered; compound A administered group: compound A was orally administered). The day of the first administration was regarded as day 0 from the start of the test. Here, 5 animals from each group were regarded as the first-half animals, and the rest were regarded as the second-half animals, and feeding and administration for the second-half animals were started on day 2 from the start of the test of the first-half animals (day 0 from the start of the test of the second-half animals). In order for the animals to be acclimated to the environment inside an exhaled gas measurement chamber, the animals after oral administration in the morning (9:00) at days 7, 21, and 49 days from the start of the test were individually accommodated in the exhaled gas measurement chamber for 5.5 hours (10:00-15:30) with free access to water under fasting conditions. On days 28 and 65, after oral administration in the morning (11:00), all applicable animals were promptly accommodated individually in the exhaled gas measurement chamber, and acclimated for about 24 hours with free access to water and food. Oral administration was carried out in the afternoon of the same day (15:30) and in the morning of the next day (8:30), and the animals after administration were promptly accommodated in the exhaled gas measurement chamber again. After acclimation, the animals were returned to the cages for housing them. […] Oral administration was carried out in the morning (11:00) and afternoon (15:30) of the same day, and after oral administration in the morning (8:30) of the next day, exhaled gas was measured until necropsy. […]

[2] = Rectal temperature before necropsy; settings: before necropsy (day 83); 720 mg/10mL/kg oral twice a day for 12 weeks, ultra high fat diet; n=10; p < 0.01 vs CON
Description: Before necropsy, a temperature controller for small animals (NS-TC10 Temperature Controller, Neuroscience, Inc.) equipped with a probe for measuring the rectal temperature was inserted into the rectum to measure the rectal temperature.
(§1) Animals after arrival were fed ad libitum a solid diet of ultra high fat diet (D12492). After an acclimatization period, the animals were divided into groups according to the body weight. Then, the animals were individually housed and fed ad libitum the ultra high fat diet. The test substance was orally administered to all groups twice daily (once in the morning and once in the afternoon) (CON group: 0.5% CMC was orally administered; compound A administered group: compound A was orally administered). The day of the first administration was regarded as day 0 from the start of the test. Here, 5 animals from each group were regarded as the first-half animals, and the rest were regarded as the second-half animals, and feeding and administration for the second-half animals were started on day 2 from the start of the test of the first-half animals (day 0 from the start of the test of the second-half animals). […] Oral administration was carried out in the morning (11:00) and afternoon (15:30) of the same day, and after oral administration in the morning (8:30) of the next day, exhaled gas was measured until necropsy. […]

[3] = Body weight measurement; settings: for Body weight: ultra high fat diet, n=10
Experimental: Measurements were carried out at the time of arrival and every week from the day of grouping until the time of necropsy. Measurements were also carried out on the day of measuring the body composition and immediately before necropsy.
(§2) Animals after arrival were fed ad libitum a solid diet of ultra high fat diet (D12492). After an acclimatization period, the animals were divided into groups according to the body weight. Then, the animals were individually housed and fed ad libitum the ultra high fat diet. The test substance was orally administered to all groups twice daily (once in the morning and once in the afternoon) (CON group: 0.5% CMC was orally administered; compound A administered group: compound A was orally administered). The day of the first administration was regarded as day 0 from the start of the test. Here, 5 animals from each group were regarded as the first-half animals, and the rest were regarded as the second-half animals, and feeding and administration for the second-half animals were started on day 2 from the start of the test of the first-half animals (day 0 from the start of the test of the second-half animals). In order for the animals to be acclimated to the environment inside an exhaled gas measurement chamber, the animals after oral administration in the morning (9:00) at days 7, 21, and 49 days from the start of the test were individually accommodated in the exhaled gas measurement chamber for 5.5 hours (10:00-15:30) with free access to water under fasting conditions. On days 28 and 65, after oral administration in the morning (11:00), all applicable animals were promptly accommodated individually in the exhaled gas measurement chamber, and acclimated for about 24 hours with free access to water and food. Oral administration was carried out in the afternoon of the same day (15:30) and in the morning of the next day (8:30), and the animals after administration were promptly accommodated in the exhaled gas measurement chamber again. After acclimation, the animals were returned to the cages for housing them. On day 82, all applicable animals were promptly accommodated in the exhaled gas measurement chamber (10:00) before oral administration in the morning. Oral administration was carried out in the morning (11:00) and afternoon (15:30) of the same day, and after oral administration in the morning (8:30) of the next day, exhaled gas was measured until necropsy. The animals were subjected to necropsy in the afternoon on day 83 (13:00). At the time of necropsy, laparotomy was performed under isoflurane anesthesia, and blood was collected from the caudal vena cava. After blood collection, the animals were euthanized by bleeding from the site of blood collection, and organs (fat, skeletal muscle) were collected.

[4] = Body composition (body composition analyzer, Echo MRI-700); settings: 720 mg/10mL/kg oral twice a day, ultra high fat diet, n=10
Experimental: The body fat mass and the lean body mass were measured with a body composition analyzer (Echo MRI-700, Hitachi, Ltd.) at 6, 9, and 12 weeks of the test food intake, and divided by the body weight to calculate body fat percentage and lean body mass percentage.
as §2

[5] = White fat tissue weight at necropsy; settings: white fat weight per body weight at necropsy, 720 mg/10mL/kg oral twice a day for 12 weeks, ultra high fat diet, n=10
Description: as §2
At the time of necropsy, fat around the left and right epididymides was taken out, and then the epididymides were discarded. […]

[6] = Skeletal muscle weight at necropsy; settings: 720 mg/10mL/kg oral twice a day for 12 weeks, ultra high fat diet, n=10, p<0.05 vs CON
Description: as §2, with “collected. […]” for “collected.”

[7] = Total cholesterol in plasma at necropsy; settings: 720 mg/10mL/kg oral twice a day for 12 weeks, ultra high fat diet, n=10, p < 0.01 vs CON
Description: as §1

[8] = calculated from VO2 and VCO2, p < 0.01 vs CON
[9] = muscle weight per body weight at necropsy, left and right together

## O=C(O)CC(C(=O)O)N1C(=O)CC(O)(CC(=O)O)C1=O (racemic) [Compound A]
[1]
  total carbon dioxide production: 28.277 mL/min/kg
[1]; p < 0.01 vs CON
  total oxygen consumption: 35.682 mL/min/kg
[1]; [8]
  total energy consumption: 243 kcal/kg/day
  total lipid burning: 17768 mg/kg/day
[2]
  Rectal temperature: 35.7 °C
[3]; 1 week, 720 mg/10mL/kg oral twice a day
  Body weight: 24.9 g
[3]; 2 weeks, 720 mg/10mL/kg oral twice a day
  Body weight: 25.1 g
[3]; 3 weeks, 720 mg/10mL/kg oral twice a day
  Body weight: 25.3 g
[3]; 4 weeks, 720 mg/10mL/kg oral twice a day
  Body weight: 25.4 g
[3]; 5 weeks, 720 mg/10mL/kg oral twice a day
  Body weight: 25.8 g
[3]; 6 weeks, 720 mg/10mL/kg oral twice a day
  Body weight: 26.4 g
[3]; 7 weeks, 720 mg/10mL/kg oral twice a day, p=0.087 vs CON
  Body weight: 26.8 g
[3]; 8 weeks, 720 mg/10mL/kg oral twice a day, p=0.082 vs CON
  Body weight: 27.3 g
[3]; 9 weeks, 720 mg/10mL/kg oral twice a day, p=0.068 vs CON
  Body weight: 27.8 g
[3]; 10 weeks, 720 mg/10mL/kg oral twice a day, p < 0.05 vs CON
  Body weight: 27.2 g
[3]; 11 weeks, 720 mg/10mL/kg oral twice a day, p < 0.05 vs CON
  Body weight: 28.3 g
[3]; 12 weeks, 720 mg/10mL/kg oral twice a day, p < 0.05 vs CON
  Body weight: 28.9 g
[3]; Before administration (baseline)
  Body weight: 25.1 g
[3]; after 12 weeks of administration, (3.8 / 7.2) × 100
  body weight gain relative to the body weight gain of the CON group being 100%: 52.8%
[3]; after 12 weeks of administration, CON group 7.2 g
  mean body weight gain: 3.8 g
[4]; 6 weeks, p=0.057 vs CON
  Lean body mass percentage: 79.6%
[4]; 6 weeks, p=0.092 vs CON
  Body fat percentage: 15.6%
[4]; 9 weeks, p < 0.05 vs CON
  Body fat percentage: 17.7%
  Lean body mass percentage: 77.3%
[4]; 12 weeks, p < 0.01 vs CON
  Body fat percentage: 19.0%
  Lean body mass percentage: 74.7%
[5]; p < 0.01 vs CON
  Epididymal fat: 32.18 g/Kg body weight
  Perirenal fat: 12.12 g/Kg body weight
[5]; p<0.05 vs CON
  Interscapular fat: 1.88 g/Kg body weight
  Mesenteric fat: 10.10 g/Kg body weight
[6]; [9]
  Anterior tibialis muscle: 3.53 g/Kg body weight
  Extensor digitorum longus muscle: 0.84 g/Kg body weight
  Plantaris muscle: 1.31 g/Kg body weight
[6]; plantaris, anterior tibial and extensor digitorum longus muscle, per body weight at necropsy
  Muscles (Total weight of 3 types of muscle): 5.68 g/Kg body weight
[7]
  Total cholesterol: 149.4 mg/dL

Reference: EP4729058A1, “AGENT FOR PROMOTING ENERGY CONSUMPTION” (Otsuka Pharmaceutical Factory, Inc., priority 2023, dated 2024)
